Measured values published in BindingDB's records for doi:10.1016/j.bmc.2005.12.063 (Kyushu Institute of Technology, 2006).
Peptide text beside a SMILES is read from it.

Key:
Assay in all cases: HDAC Enzyme Activity Assay
Settings in all cases: pH 8; 37 °C
[1] = target: Histone deacetylase 4 (Homo sapiens, UniProt P56524)
[2] = target: T1, Histone deacetylase 6 (Mus musculus, UniProt Q9Z2V5)
T1 sequence (Q9Z2V5 whole entry): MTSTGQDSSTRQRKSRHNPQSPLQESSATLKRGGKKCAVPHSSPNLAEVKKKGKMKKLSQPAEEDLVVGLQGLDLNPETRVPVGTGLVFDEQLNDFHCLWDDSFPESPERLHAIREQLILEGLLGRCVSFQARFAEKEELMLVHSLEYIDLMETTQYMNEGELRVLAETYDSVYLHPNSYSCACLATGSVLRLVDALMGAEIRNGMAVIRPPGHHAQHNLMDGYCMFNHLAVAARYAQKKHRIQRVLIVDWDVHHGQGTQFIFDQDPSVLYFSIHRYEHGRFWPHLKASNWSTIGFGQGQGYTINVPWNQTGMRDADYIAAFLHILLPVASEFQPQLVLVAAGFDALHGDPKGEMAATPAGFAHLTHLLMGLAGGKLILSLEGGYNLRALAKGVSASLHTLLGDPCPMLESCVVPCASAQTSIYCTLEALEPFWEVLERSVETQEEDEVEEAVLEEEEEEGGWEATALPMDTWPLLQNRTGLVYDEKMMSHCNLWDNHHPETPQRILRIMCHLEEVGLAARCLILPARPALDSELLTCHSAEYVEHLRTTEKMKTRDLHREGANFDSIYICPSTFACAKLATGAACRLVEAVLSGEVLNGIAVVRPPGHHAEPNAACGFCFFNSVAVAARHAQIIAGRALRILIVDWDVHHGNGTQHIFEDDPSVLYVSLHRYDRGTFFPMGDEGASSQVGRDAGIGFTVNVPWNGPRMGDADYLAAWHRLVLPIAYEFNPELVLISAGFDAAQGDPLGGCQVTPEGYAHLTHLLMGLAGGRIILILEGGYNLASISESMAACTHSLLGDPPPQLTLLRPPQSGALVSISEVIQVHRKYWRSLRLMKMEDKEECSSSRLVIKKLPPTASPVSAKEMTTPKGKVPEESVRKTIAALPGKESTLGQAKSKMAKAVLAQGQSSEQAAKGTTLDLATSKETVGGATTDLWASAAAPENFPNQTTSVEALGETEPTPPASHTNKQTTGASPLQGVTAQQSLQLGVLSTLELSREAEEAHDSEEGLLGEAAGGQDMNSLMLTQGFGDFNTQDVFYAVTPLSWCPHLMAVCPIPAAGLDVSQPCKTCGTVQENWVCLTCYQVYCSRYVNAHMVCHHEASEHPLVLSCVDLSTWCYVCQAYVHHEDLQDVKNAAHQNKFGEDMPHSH

[3] = target: Histone deacetylase 1 (Homo sapiens, UniProt Q13547)
Histone deacetylase 1, sequence (Q13547 whole entry): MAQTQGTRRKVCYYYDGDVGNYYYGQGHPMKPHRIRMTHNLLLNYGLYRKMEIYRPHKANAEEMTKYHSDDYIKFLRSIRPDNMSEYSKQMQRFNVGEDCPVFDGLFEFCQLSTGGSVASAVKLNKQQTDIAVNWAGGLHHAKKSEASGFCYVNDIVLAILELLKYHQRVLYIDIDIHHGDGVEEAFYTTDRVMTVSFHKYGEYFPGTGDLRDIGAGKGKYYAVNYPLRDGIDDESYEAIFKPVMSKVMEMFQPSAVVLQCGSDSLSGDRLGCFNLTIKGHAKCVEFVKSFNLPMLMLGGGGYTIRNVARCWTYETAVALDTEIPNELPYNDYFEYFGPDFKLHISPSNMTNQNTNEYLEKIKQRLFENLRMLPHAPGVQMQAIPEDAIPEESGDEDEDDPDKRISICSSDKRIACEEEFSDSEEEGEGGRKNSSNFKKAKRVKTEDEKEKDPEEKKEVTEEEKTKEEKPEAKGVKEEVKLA

Histone deacetylase 4, sequence (P56524 whole entry): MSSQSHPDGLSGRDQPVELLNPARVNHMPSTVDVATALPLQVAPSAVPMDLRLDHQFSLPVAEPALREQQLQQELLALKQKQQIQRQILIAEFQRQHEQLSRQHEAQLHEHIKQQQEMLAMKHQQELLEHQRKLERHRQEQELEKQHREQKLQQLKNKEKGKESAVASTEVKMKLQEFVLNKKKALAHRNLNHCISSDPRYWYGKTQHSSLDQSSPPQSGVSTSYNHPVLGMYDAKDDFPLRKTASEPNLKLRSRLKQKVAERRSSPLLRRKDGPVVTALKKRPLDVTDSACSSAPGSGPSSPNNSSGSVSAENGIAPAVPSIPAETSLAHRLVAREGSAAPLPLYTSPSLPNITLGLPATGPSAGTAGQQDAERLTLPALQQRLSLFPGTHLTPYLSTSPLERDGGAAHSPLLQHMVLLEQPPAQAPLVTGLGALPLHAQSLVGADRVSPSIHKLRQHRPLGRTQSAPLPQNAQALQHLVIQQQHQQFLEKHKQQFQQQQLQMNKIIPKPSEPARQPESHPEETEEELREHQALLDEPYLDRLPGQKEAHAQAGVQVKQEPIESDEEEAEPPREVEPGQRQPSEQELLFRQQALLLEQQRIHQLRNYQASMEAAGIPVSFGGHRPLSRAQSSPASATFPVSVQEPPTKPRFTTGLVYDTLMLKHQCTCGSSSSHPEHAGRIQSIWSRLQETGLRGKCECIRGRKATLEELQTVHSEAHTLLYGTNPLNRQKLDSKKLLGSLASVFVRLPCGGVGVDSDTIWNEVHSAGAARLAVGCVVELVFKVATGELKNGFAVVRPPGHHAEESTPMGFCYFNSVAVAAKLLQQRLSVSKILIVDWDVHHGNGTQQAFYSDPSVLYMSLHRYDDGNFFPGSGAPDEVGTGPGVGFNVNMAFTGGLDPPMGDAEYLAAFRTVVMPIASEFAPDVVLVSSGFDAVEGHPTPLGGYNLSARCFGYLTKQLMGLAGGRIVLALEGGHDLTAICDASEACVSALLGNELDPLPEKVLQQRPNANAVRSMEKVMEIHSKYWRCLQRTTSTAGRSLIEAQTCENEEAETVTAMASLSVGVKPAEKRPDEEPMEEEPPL

Structure (SMILES) | IC50 [1] [µM] | IC50 [2] [µM] | IC50 [3] [µM]
CC1(C)NC(=O)[C@H](CCCCCC(=O)CBr)NC(=O)[C@H]2CCCN2C(=O)[C@H](Cc2ccccc2)NC1=O [(3S,9S,14aR)-9-benzyl-3-(7-bromo-6-oxoheptyl)-6,6-dimethyl-tetradecahydropyrrolo[1,2-a][,,,]cyclododecane-1,4,7,10-tetrone] | 0.0595 | – | –
CC1(C)NC(=O)[C@H](CCCCCC(=O)CO)NC(=O)[C@H]2CCCN2C(=O)[C@H](Cc2ccccc2)NC1=O [(3S,9S,14aR)-9-benzyl-3-(7-hydroxy-6-oxoheptyl)-6,6-dimethyl-tetradecahydropyrrolo[1,2-a][,,,]cyclododecane-1,4,7,10-tetrone] | 0.0604 | 0.887 | 0.223
CC(=O)CCCCC[C@@H]1NC(=O)[C@H]2CCCN2C(=O)[C@H](Cc2ccccc2)NC(=O)C(C)(C)NC1=O [(3S,9S,14aR)-9-benzyl-6,6-dimethyl-3-(6-oxoheptyl)-tetradecahydropyrrolo[1,2-a][,,,]cyclododecane-1,4,7,10-tetrone] | 0.29 | 3.7 | 1.08
C=CCCCCC[C@@H]1NC(=O)[C@H]2CCCN2C(=O)[C@H](Cc2ccccc2)NC(=O)C(C)(C)NC1=O [(3S,9S,14aR)-9-benzyl-3-(hept-6-en-1-yl)-6,6-dimethyl-tetradecahydropyrrolo[1,2-a][,,,]cyclododecane-1,4,7,10-tetrone] (HELM PEPTIDE1{[Aib].F.[dP].[C=CCCCCC[C@H](N[*:1])C(=O)[*:2]]}$PEPTIDE1,PEPTIDE1,1:R1-4:R2$$$V2.0) | > 100 | > 100 | > 100
CC1(C)NC(=O)[C@H](CCCCCC(O)CO)NC(=O)[C@H]2CCCN2C(=O)[C@H](Cc2ccccc2)NC1=O (stereo partly drawn) [(3S,9S,14aR)-9-benzyl-3-(6,7-dihydroxyheptyl)-6,6-dimethyl-tetradecahydropyrrolo[1,2-a][,,,]cyclododecane-1,4,7,10-tetrone] | > 100 | > 100 | > 100
CC1(C)NC(=O)[C@H](CCCCCC=O)NC(=O)[C@H]2CCCN2C(=O)[C@H](Cc2ccccc2)NC1=O [6-[(3S,9S,14aR)-9-benzyl-6,6-dimethyl-1,4,7,10-tetraoxo-tetradecahydropyrrolo[1,2-a][,,,]cyclododecan-3-yl]hexanal] | 1.29 | 14.1 | 4.33
CC1(C)NC(=O)[C@H](CCCCCC2CO2)NC(=O)[C@H]2CCCN2C(=O)[C@H](Cc2ccccc2)NC1=O (stereo partly drawn) [(3S,9S,14aR)-9-benzyl-6,6-dimethyl-3-[5-(oxiran-2-yl)pentyl]-tetradecahydropyrrolo[1,2-a][,,,]cyclododecane-1,4,7,10-tetrone] | 4.05 | > 100 | 4.69
